SMILES strings stand for the structures.

A short description of data set [1]: in vivo. The arrangement: species or system New Zealand Red/White F1 Cross rabbits. Particulars: female, New Zealand Red/White F1 Cross, rabbit. As for the experimental part: In this experiment, female pigmented rabbits were assigned to receive one of two formulations of lifitegrast (#1 and #2) for 5 consecutive days. Each treatment group consisted of 25 rabbits. Animals received a single topical ocular dose of lifitegrast in each eye b.i.d.
(except on study day 5), approximately 12 hours apart (±1 hour), at a target dose level of 1.75 mg/eye/dose (35 μL/eye/dose). On study day 5, animals were dosed in the morning only. Treatment groups 1 and 2 were dosed on separate days. The in-life portion of the study was conducted in May 2014. This study adhered to the ARVO Statement for the Use of Animals in Ophthalmic and Vision Research and all procedures in the study were in compliance with the Animal Welfare Act Regulations (9 CFR 3).
Fifty female New Zealand Red/White F1 Cross rabbits from Covance Research Products (Denver, Pa., USA) were used in the study. The animals were acclimated to study conditions for 13 days before dose administration. At dosing, the animals weighed 3177 to 4271 g and were at least 6 months of age. Animals were housed individually, in suspended stainless steel cages, with food and water ad libitum, and under a 12-hour light/12-hour darkness cycle throughout the study. Animals were not randomized, but were assigned to animal numbers based on overall health and the results of predose ophthalmic examinations. Ophthalmic examinations were performed by a board-certified veterinary ophthalmologist once at baseline (pre dose) using a Kowa hand-held slit-lamp biomicroscope and an indirect ophthalmoscope with a condensing lens to ensure the study animals were healthy and had no ocular findings pre-treatment.
Formulations for the study that would be representative of the clinical material (confirmed by analytical data) were prepared at Covance Laboratories Inc. In each formulation, lifitegrast was added to dose vehicle while stirring, and pH adjusted with hydrochloric acid (HCl) and/or sodium hydroxide (NaOH). The formulation was stirred until a clear solution was obtained, filtered with a 0.22 μm filter (Millipore® Millex-GV, 0.22 μm, Durapore® PVDF) and stored at approximately 5° C. Analysis of the formulations was performed by Almac Sciences, Souderton, Pa., USA, and concentrations were measured as 49.4 and 49.3 mg/mL for formulations #1 and #2, respectively.
Formulation #1: dose vehicle consisted of sterile water for injection, sodium chloride, sodium phosphate dibasic anhydrous, sodium bicarbonate, ethylenediaminetetraacetic acid (EDTA), and sodium thiosulfate pentahydrate, adjusted to a pH of 7.30 with HCl. After addition of lifitegrast (50 mg/mL), the pH was adjusted to 6.90. […]

The conditions of data set [2]: literature; cited from earlier work.

As to `CS(=O)(=O)c1cccc(C[C@H](NC(=O)c2c(Cl)cc3c(c2Cl)CCN(C(=O)c2ccc4ccoc4c2)C3)C(=O)O)c1` [lifitegrast, Lifitegrast], in data set [1], the Cmax was not above 36 ng/g. The Tmax in data set [1] is 15 to 60 min. The half-life in data set [1] (plasma t1/2) was 51 min; in data set [1] (t1/2), approximately 120 min. For the same compound, in data set [2], the “safety profile in clinical trials” value is “generally well tolerated”.

The record behind these values is patent US20200009130A1, “OCULAR DISTRIBUTION AND PHARMACOKINETICS OF LIFITEGRAST FORMULATIONS” (SARcode Bioscience Inc., priority 2016, published 2020).
